Experimental data published in patent US7973047B2, “Beta-Secretase modulators and methods of use” (Amgen Inc., priority 2010, dated 2011).
Like-named read-outs stand apart in the source and are kept apart here.

System: Aβ40 in conditioned medium of cells stably expressing Amyloid Precursor Protein (APP)
Test: BACE cell-based assay: Aβ40 in conditioned medium by sandwich ELISA
In short: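 Aβ40 in conditioned medium was read by time-resolved fluorescence sandwich ELISA (capture pAb40, detection biotinylated 6E10, 4° C incubations). Compounds were applied for 24 h to cells stably expressing APP, at 10 doses from 100 or 10 μM top, 0.1% DMSO. IC50 derived from percent of control.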

[1] = cell based assay data, Table 4, unit inferred, read-out: Cell Assay
[2] = cell based assay data of Table 4, unit inferred, read-out: Cell Assay

IC50 [1]	IC50 [2]	also measured	Compound
33.8 nM	–	–	CC(=O)N[C@@H](Cc1cccc(F)c1F)[C@H](O)CN[C@H]1C[C@]2(C[C@H](C)C2)Oc2ncc(CC(C)(C)C)cc21 [compound 769, N-((1S,2R)-1-((2,3-difluorophenyl)methyl)-3-(((1s,3R,4′S)-6′-(2,2-dimethylpropyl)-3-methyl-3′,4′-dihydrospiro[cyclobutane-1,2′-pyrano[2,3-b]pyridin]-4′-yl)amino)-2-hydroxypropyl)acetamide]
≥ 10000 nM	–	–	C=CC[C@H](NC(C)=O)[C@@H](O)CN[C@H]1CC2(CCC2)Oc2ncc(CC(C)(C)C)cc21 [compound 737, N-((1S)-1-((1S)-2-(((4′S)-6′-(2,2-dimethylpropyl)-3′,4′-dihydrospiro[cyclobutane-1,2′-pyrano[2,3-b]pyridin]-4′-yl)amino)-1-hydroxyethyl)-3-buten-1-yl)acetamide]
–	62.7 nM	–	CC(=O)N[C@@H](Cc1ccc(F)cc1)[C@H](O)CN[C@H]1C[C@]2(C[C@@H](C)C2)Oc2ncc(CC(C)C)cc21 [compound 616, N-((1S,2R)-1-((4-fluorophenyl)methyl)-2-hydroxy-3-(((1r,3S,4′S)-3-methyl-6′-(2-methylpropyl)-3′,4′-dihydrospiro[cyclobutane-1,2′-pyrano[2,3-b]pyridin]-4′-yl)amino)propyl)acetamide]
–	20.2 nM	–	CC(=O)N[C@@H](Cc1ccc(F)cc1)[C@H](O)CN[C@H]1CC2(CCC2)Oc2ncc(CC(C)(C)C#N)cc21 [compound 650]
–	11.2 nM	–	CCc1cc2c(c(N3CCOCC3)c1)OC(C)(C)C[C@@H]2NC[C@@H](O)[C@H](Cc1cccc(C#N)c1)NC(C)=O [compound 532]
359 nM	–	–	CC(=O)N[C@@H](Cc1cc(F)cc(F)c1)[C@H](O)CN[C@H]1CC2(CCC2)Oc2ccc(N3CCCC3=O)cc21 [compound 793]
–	2.36 nM	–	CC(=O)N[C@@H](Cc1ccc(F)c(F)c1)[C@H](O)CN[C@H]1CC2(CCC2)Oc2ncc(CC(C)(C)C)cc21 [compound 701]
–	189 nM	–	CC(=O)N[C@@H](Cc1ccc(C(F)(F)F)cc1)[C@H](O)CN[C@H]1CC2(CCC2)Oc2ncc(CC(C)(C)C)cc21 [compound 648]
–	3.94 nM	–	CC(=O)N[C@@H](Cc1cccc(F)c1)[C@H](O)CN[C@H]1CC2(CCC2)Oc2ncc(CC(C)(C)F)cc21 [compound 525]
300 nM	–	–	CN(C)CC(=O)N[C@@H](Cc1cccc(C#N)c1)[C@H](O)CN[C@H]1CC2(CCC2)Oc2ccc(Br)cc21 [compound 727]
34.8 nM	–	–	CC(=O)N[C@@H](Cc1ccccc1)[C@H](O)CN[C@H]1CC(C)(C)Oc2cnc(CC(C)(C)C)cc21 [compound 794]
215 nM	–	–	CC(=O)N[C@@H](Cc1cc(F)cc(F)c1)[C@H](O)CN[C@H]1CC2(CCC2)Oc2ncc(-n3cccn3)cc21 [compound 746]
–	36.4 nM	–	CC(C)(C)Cc1cnc2c(c1)[C@@H](NC[C@@H](O)[C@H](Cc1ccc(F)cc1)NC(=O)C(F)F)CC1(CCC1)O2 [compound 630]
21.9 nM	–	–	CC(=O)N[C@@H](Cc1cc(F)cc(F)c1)[C@H](O)CN[C@H]1CC2(CCC2)Oc2c1cc(Cl)cc2-n1ccnc1 [compound 773]
8.57 nM	–	–	CC(=O)N[C@@H](Cc1ccc(Cl)c(F)c1)[C@H](O)CN[C@H]1CC2(CCC2)Oc2ncc(CC(C)(C)C)cc21 [compound 720]
–	≥ 10000 nM	–	CC(=O)N[C@@H](Cc1ccccc1)[C@H](O)CN[C@H]1CC2(CCC2)Oc2ccc(-c3cn(C)nn3)cc21 [compound 521]
–	60 nM	–	COC(=O)N[C@@H](Cc1ccc(F)cc1)[C@H](O)CN[C@H]1CC2(CCC2)Oc2ncc(CC(C)(C)C)cc21 [compound 577]

IC50 [1]	IC50 [2]	also measured	Compound
–	–	IC50 (cells stably expressing APP, 24 h incubation with compound, Aβ40 in supernatant by sandwich ELISA, read-out: IC50 values in the cell-based assay (inhibition or reduction of Aβ40)): ≤ 5000 nM	CCc1ccc2c(c1)[C@@H](NC[C@@H](O)[C@H](Cc1cccc(Br)c1)NC(=O)CCCCCCNC(=O)OCc1ccccc1)CC1(CCC1)O2 [Example 337]
2.46 nM	–	–	CC(=O)N[C@@H](Cc1cccc(F)c1)[C@H](O)CN[C@H]1C[C@]2(C[C@H](C)C2)Oc2ncc(CC(C)(C)C)cc21 [compound 770, N-((1S,2R)-3-(((1s,3R,4′S)-6′-(2,2-dimethylpropyl)-3-methyl-3′,4′-dihydrospiro[cyclobutane-1,2′-pyrano[2,3-b]pyridin]-4′-yl)amino)-1-((3-fluorophenyl)methyl)-2-hydroxypropyl)acetamide]
212 nM	–	–	CC(=O)N[C@@H](Cc1cc(F)cc(F)c1)[C@H](O)CN[C@H]1CC2(CCC2)Oc2c1cc(Cl)cc2-n1cnc2ccccc21 [compound 775]
–	34.8 nM	–	CC(=O)N[C@@H](Cc1ccc(F)cc1)[C@H](O)CN[C@H]1CC2(CCCC2)Oc2ncc(CC(C)(C)C)cc21 [compound 547]
1160 nM	–	–	CC(=O)N[C@@H](Cc1cc(F)cc(F)c1)[C@@H](O)CN[C@H]1CC2(CCC2)Oc2ccc(-n3cccn3)cc21 [compound 781]
6.93 nM	–	–	CC(=O)N[C@@H](Cc1c(F)cccc1F)[C@H](O)CN[C@H]1CC2(CCC2)Oc2ncc(CC(C)(C)C)cc21 [compound 826]
3.56 nM	–	–	CC(=O)N[C@@H](Cc1cc(F)cc(F)c1)[C@H](O)CN[C@H]1CC(C)(C)Oc2cnc(CC(C)(C)C)cc21 [compound 800]
498 nM	–	–	CC(=O)N[C@@H](Cc1cc(F)cc(F)c1)[C@H](O)CN[C@H]1CC2(CCC2)Oc2ncc(-n3ccnc3)cc21 [compound 747]
–	277 nM	–	CC(=O)N[C@@H](Cc1ccc(F)cc1)[C@H](O)CN[C@H]1CC2(CCC2)Oc2ncc(C(=O)C(C)(C)C)cc21 [compound 697]
–	17.1 nM	–	COCCC(=O)N[C@@H](Cc1ccc(F)cc1)[C@H](O)CN[C@H]1CC2(CCC2)Oc2ncc(CC(C)(C)C)cc21 [compound 633]
9.35 nM	–	–	CC(=O)N[C@@H](Cc1cccc(C(F)(F)F)c1)[C@H](O)CN[C@H]1CC2(CCC2)Oc2ncc(CC(C)C)cc21 [compound 719]
15.5 nM	–	–	CC(=O)N[C@@H](Cc1ccc(F)c(Cl)c1)[C@H](O)CN[C@H]1C[C@]2(C[C@H](C)C2)Oc2ncc(CC(C)(C)C)cc21 [compound 713, N-((1S,2R)-1-((3-chloro-4-fluorophenyl)methyl)-3-(((1s,3R,4′S)-6′-(2,2-dimethylpropyl)-3-methyl-3′,4′-dihydrospiro[cyclobutane-1,2′-pyrano[2,3-b]pyridin]-4′-yl)amino)-2-hydroxypropyl)acetamide]
–	2.98 nM	–	CC(=O)N[C@@H](Cc1cccc(F)c1)[C@H](O)CN[C@H]1C[C@]2(C[C@H](C)C2)Oc2ncc(CC(C)C)cc21 [compound 617, N-((1S,2R)-1-((3-fluorophenyl)methyl)-2-hydroxy-3-(((1s,3R,4′S)-3-methyl-6′-(2-methylpropyl)-3′,4′-dihydrospiro[cyclobutane-1,2′-pyrano[2,3-b]pyridin]-4′-yl)amino)propyl)acetamide]
–	30 nM	–	CC(=O)N[C@@H](Cc1ccn(C)c(=O)c1)[C@H](O)CN[C@H]1CC2(CCC2)Oc2ncc(CC(C)(C)C)cc21 [compound 649]
–	23.6 nM	–	CC(=O)N[C@@H](Cc1cccc(F)c1)[C@H](O)CN[C@H]1CC2(CCC2)Oc2c1cc(CC(C)(C)C)nc2N(C)C [compound 593]
15.8 nM	–	–	CC(=O)N[C@@H](Cc1ccc(F)cc1)[C@H](O)CN[C@H]1CC2(CC(C)C2)Oc2ncc(CC(C)(C)C)cc21 (stereo partly drawn) [compound 766, N-((1S,2R)-3-(((4′S)-6′-(2,2-dimethylpropyl)-3-methyl-3′,4′-dihydrospiro[cyclobutane-1,2′-pyrano[2,3-b]pyridin]-4′-yl)amino)-1-((4-fluorophenyl)methyl)-2-hydroxypropyl)acetamide]
